pIC50: −log10 of the molar value. Bridge positions count the residues as written; N and C are the ends. Peptide text beside a SMILES is read from it.
Assays:
Format in all cases: cell-based
hNaV1.7 = biological target: T1, hNaV1.7 (Homo sapiens, UniProt Q15858); test: Automated whole-cell patch-clamp (QPatch 16X), hNaV1.7; conditions: for pIC50: HEK293 cells expressing hNaV1.7 + β1 subunit, QPatch 16X, holding −80 mV, step to 0 mV, peptide incubated 2 min, 0.1% BSA, mean, SEM and n (3-9)
T1 construct: host or cells: HEK293
Outline: (§1)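 HEK293 cells stably expressing the channel (human subtypes with β1 subunit), held at −80 mV; 2 min peptide pre-incubation, then 20 ms steps to 0 mV after a 200 ms −120 mV conditioning pulse. Extracellular pH 7.3 with 20 mM TEA-Cl, CsF-based pipette solution, 0.1% BSA; IC50 from four-parameter Hill fit.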

hNaV1.2 = biological target: T2, hNaV1.2 (Homo sapiens, UniProt Q99250); test: Automated whole-cell patch-clamp (QPatch 16X), hNaV1.2; conditions: for pIC50: HEK293 cells expressing hNaV1.2 + β1 subunit, QPatch 16X, holding −80 mV, step to 0 mV, peptide incubated 2 min, 0.1% BSA, mean, SEM and n (2-7)
T2 construct: host or cells: HEK293
T2 sequence (Q07699 19-218): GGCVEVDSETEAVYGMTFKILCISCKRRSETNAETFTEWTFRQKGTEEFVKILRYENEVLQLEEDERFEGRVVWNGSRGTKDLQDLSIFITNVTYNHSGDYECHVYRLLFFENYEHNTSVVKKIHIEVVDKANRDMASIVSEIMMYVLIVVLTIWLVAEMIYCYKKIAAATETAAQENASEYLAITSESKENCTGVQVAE
T2 sequence (Q99250 whole entry): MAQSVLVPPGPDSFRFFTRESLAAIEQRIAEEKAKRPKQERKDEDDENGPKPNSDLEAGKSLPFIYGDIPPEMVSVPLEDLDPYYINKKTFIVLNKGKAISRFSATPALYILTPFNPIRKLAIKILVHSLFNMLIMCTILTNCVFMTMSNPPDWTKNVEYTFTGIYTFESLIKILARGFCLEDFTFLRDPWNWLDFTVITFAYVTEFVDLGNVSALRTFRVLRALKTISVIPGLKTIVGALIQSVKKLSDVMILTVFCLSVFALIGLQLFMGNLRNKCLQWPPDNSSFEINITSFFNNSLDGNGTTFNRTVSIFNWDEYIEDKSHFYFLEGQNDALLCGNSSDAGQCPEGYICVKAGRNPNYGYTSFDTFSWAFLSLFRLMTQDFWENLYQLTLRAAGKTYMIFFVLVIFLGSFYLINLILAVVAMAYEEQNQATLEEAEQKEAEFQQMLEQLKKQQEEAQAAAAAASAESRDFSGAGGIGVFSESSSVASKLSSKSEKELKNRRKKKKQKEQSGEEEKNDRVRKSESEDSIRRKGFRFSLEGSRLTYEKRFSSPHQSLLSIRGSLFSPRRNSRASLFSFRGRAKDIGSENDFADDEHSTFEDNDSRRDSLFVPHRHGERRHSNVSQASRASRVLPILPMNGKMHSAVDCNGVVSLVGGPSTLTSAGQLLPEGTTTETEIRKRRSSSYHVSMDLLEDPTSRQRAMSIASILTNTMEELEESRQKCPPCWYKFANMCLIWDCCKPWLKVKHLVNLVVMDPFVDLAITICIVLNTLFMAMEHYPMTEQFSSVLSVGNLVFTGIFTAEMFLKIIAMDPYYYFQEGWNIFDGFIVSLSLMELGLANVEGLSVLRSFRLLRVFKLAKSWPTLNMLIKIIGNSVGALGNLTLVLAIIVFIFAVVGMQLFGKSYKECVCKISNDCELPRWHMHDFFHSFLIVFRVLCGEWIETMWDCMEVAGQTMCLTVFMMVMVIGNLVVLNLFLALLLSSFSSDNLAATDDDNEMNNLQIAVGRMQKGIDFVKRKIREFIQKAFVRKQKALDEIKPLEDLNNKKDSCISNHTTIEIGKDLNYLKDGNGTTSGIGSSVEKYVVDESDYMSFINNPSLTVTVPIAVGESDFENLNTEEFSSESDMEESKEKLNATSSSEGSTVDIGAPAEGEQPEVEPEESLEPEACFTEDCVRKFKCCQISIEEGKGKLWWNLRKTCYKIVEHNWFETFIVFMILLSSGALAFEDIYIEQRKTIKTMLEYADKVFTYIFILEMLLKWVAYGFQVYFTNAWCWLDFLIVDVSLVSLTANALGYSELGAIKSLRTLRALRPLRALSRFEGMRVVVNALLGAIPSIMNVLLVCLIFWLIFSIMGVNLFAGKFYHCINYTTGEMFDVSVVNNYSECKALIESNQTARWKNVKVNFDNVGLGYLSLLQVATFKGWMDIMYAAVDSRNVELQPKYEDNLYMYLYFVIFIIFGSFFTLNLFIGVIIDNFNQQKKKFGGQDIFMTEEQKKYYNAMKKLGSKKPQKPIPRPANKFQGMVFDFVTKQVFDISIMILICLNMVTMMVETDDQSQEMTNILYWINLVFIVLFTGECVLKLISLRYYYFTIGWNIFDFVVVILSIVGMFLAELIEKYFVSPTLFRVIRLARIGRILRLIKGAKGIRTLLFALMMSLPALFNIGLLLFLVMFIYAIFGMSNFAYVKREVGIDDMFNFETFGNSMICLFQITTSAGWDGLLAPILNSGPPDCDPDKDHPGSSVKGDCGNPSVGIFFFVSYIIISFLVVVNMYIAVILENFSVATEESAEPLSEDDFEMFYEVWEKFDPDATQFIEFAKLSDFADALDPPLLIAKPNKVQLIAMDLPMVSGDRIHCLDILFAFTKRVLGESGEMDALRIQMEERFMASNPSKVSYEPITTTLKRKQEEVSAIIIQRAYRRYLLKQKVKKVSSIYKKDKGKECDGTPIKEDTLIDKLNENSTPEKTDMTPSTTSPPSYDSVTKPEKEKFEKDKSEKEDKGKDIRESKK
Outline: as §1

hNaV1.3 = biological target: T3, hNaV1.3 (Homo sapiens, UniProt Q9NY46); test: Automated whole-cell patch-clamp (QPatch 16X), hNaV1.3; conditions: HEK293 cells expressing hNaV1.3 + β1 subunit; QPatch 16X; holding −80 mV, step to 0 mV; peptide incubated 2 min; 0.1% BSA; mean, SEM and n (3-12)
T3 construct: host or cells: HEK293
T3 sequence (Q9NY46 whole entry): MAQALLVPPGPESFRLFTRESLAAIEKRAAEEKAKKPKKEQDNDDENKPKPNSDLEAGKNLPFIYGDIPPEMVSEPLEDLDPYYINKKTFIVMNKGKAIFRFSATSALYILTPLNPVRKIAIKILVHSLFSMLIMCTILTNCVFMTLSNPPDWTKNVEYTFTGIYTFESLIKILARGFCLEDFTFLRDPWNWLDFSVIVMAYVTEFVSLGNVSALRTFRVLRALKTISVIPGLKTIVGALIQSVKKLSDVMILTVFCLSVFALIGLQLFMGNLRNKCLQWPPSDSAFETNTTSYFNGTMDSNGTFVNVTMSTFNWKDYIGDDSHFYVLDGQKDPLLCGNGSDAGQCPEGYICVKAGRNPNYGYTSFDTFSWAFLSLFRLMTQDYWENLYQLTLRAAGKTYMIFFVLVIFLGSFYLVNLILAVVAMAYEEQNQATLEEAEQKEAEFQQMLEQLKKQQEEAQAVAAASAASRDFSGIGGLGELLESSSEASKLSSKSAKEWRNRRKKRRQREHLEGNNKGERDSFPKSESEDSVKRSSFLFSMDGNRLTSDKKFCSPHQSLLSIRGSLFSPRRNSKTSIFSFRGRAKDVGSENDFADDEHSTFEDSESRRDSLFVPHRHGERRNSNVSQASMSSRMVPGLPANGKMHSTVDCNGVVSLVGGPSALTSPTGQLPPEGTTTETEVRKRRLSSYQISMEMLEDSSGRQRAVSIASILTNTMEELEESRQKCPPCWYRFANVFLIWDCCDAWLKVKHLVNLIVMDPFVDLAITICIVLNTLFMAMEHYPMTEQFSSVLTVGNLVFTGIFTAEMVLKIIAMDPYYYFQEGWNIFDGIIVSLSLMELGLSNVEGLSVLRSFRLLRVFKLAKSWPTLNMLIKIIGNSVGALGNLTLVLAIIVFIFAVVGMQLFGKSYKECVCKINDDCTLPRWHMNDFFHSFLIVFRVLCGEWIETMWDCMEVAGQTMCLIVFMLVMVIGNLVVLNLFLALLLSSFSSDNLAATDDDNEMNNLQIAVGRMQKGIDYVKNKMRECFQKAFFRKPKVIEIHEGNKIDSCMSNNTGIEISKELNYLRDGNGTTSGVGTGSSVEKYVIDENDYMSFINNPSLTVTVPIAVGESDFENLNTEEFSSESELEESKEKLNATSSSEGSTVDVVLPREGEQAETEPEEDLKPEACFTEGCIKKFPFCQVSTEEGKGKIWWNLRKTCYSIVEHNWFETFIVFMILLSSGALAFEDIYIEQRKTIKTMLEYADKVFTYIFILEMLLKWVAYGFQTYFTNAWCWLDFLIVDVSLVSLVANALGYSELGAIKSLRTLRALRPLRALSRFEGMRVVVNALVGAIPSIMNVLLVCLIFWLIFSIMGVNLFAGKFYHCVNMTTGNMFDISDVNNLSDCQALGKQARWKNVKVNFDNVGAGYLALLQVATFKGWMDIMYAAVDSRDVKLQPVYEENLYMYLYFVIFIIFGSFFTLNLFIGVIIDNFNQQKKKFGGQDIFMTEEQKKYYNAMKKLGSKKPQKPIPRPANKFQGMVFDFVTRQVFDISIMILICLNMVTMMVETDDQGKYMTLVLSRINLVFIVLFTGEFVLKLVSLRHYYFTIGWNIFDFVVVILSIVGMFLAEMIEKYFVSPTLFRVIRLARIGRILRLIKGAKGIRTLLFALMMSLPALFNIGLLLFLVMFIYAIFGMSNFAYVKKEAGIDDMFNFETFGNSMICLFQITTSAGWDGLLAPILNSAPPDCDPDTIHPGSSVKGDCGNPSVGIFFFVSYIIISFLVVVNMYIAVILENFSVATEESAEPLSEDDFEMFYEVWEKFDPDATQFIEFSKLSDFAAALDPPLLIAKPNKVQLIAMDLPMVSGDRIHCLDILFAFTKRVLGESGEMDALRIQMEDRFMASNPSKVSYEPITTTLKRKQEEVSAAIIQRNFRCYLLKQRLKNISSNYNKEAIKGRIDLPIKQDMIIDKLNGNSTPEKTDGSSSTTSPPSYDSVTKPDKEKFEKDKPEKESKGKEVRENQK
T3 sequence (Q07699 19-218, further chain): as the sequence (Q07699 19-218) above
Outline: as §1

Compound | pIC50 (hNaV1.7) | pIC50 (hNaV1.2) | hNaV1.2-selectivity against hNaV1.3 (hNaV1.2; ratio of potencies hNaV1.3 / hNaV1.2) [fold] | pIC50 (hNaV1.3) | Loss (reduction) in potency vs rSsp1a at hNaV1.7 (hNaV1.7; relative to wild type rSsp1a) [fold] | Loss (reduction) in potency vs rSsp1a at hNaV1.2 (hNaV1.2; relative to wild type rSsp1a) [fold]
CC(C)C[C@H](NC(=O)[C@H](CC(=O)O)NC(=O)[C@H](Cc1ccc(O)cc1)NC(=O)[C@H](CCCNC(=N)N)NC(=O)[C@@H]1CSSC[C@@H]2NC(=O)[C@H](CCCCN)NC(=O)[C@H](CC(N)=O)NC(=O)[C@H](CC(N)=O)NC(=O)[C@H](CC(N)=O)NC(=O)[C@@H]3CCCN3C(=O)[C@H](CC(=O)O)NC(=O)[C@@H]3CSSC[C@H](NC(=O)[C@H](C(C)C)NC(=O)[C@H](Cc4ccc(O)cc4)NC(=O)CNC(=O)[C@H](CCC(=O)O)NC(=O)[C@H](CSSC[C@H](NC(=O)[C@H](CC(=O)O)NC(=O)CN)C(=O)N[C@@H](CC(C)C)C(=O)NCC(=O)N[C@@H](Cc4c[nH]c5ccccc45)C(=O)N[C@@H](Cc4ccccc4)C(=O)N[C@@H](CO)C(=O)NCC(=O)N3)NC2=O)C(=O)N[C@@H](Cc2c[nH]cn2)C(=O)N[C@@H](Cc2c[nH]c3ccccc23)C(=O)N[C@@H](CCCCN)C(=O)N[C@@H](Cc2ccc(O)cc2)C(=O)N[C@@H](CCCNC(=N)N)C(=O)N[C@@H](Cc2c[nH]c3ccccc23)C(=O)N1)C(=O)O [P27R] | 6.85 | 7.11 | > 10 | < 6.00 |  | 
CC(C)C[C@H](NC(=O)[C@H](CC(=O)O)NC(=O)[C@H](Cc1ccc(O)cc1)NC(=O)[C@H](CCCNC(=N)N)NC(=O)[C@@H]1CSSC[C@@H]2NC(=O)[C@H](CCCCN)NC(=O)[C@H](C)NC(=O)[C@H](CC(N)=O)NC(=O)[C@H](CC(N)=O)NC(=O)[C@@H]3CCCN3C(=O)[C@H](CC(=O)O)NC(=O)[C@@H]3CSSC[C@H](NC(=O)[C@H](C(C)C)NC(=O)[C@H](Cc4ccc(O)cc4)NC(=O)CNC(=O)[C@H](CCC(=O)O)NC(=O)[C@H](CSSC[C@H](NC(=O)[C@H](CC(=O)O)NC(=O)CN)C(=O)N[C@@H](CC(C)C)C(=O)NCC(=O)N[C@@H](Cc4c[nH]c5ccccc45)C(=O)N[C@@H](Cc4ccccc4)C(=O)N[C@@H](CO)C(=O)NCC(=O)N3)NC2=O)C(=O)N[C@@H](Cc2c[nH]cn2)C(=O)N[C@@H](Cc2c[nH]c3ccccc23)C(=O)N[C@@H](CCCCN)C(=O)N[C@@H](Cc2ccc(O)cc2)C(=O)N2CCC[C@H]2C(=O)N[C@@H](Cc2c[nH]c3ccccc23)C(=O)N1)C(=O)O [N14A] | 6.60 | 6.65 |  | 6.11 |  | 
CC(C)C[C@H](NC(=O)[C@H](CC(=O)O)NC(=O)[C@H](Cc1ccc(O)cc1)NC(=O)[C@H](CCCNC(=N)N)NC(=O)[C@@H]1CSSC[C@@H]2NC(=O)[C@H](CCCCN)NC(=O)[C@H](CC(N)=O)NC(=O)[C@H](CC(N)=O)NC(=O)[C@H](CC(N)=O)NC(=O)[C@@H]3CCCN3C(=O)[C@H](CC(=O)O)NC(=O)[C@@H]3CSSC[C@H](NC(=O)[C@H](C(C)C)NC(=O)[C@H](Cc4ccc(O)cc4)NC(=O)CNC(=O)[C@H](CCC(=O)O)NC(=O)[C@H](CSSC[C@H](NC(=O)[C@H](CC(=O)O)NC(=O)CN)C(=O)N[C@@H](CC(C)C)C(=O)NCC(=O)N[C@@H](Cc4c[nH]c5ccccc45)C(=O)N[C@@H](Cc4ccccc4)C(=O)N[C@@H](CCCNC(=N)N)C(=O)NCC(=O)N3)NC2=O)C(=O)N[C@@H](Cc2c[nH]cn2)C(=O)N[C@@H](Cc2c[nH]c3ccccc23)C(=O)N[C@@H](CCCCN)C(=O)N[C@@H](Cc2ccc(O)cc2)C(=O)N2CCC[C@H]2C(=O)N[C@@H](Cc2c[nH]c3ccccc23)C(=O)N1)C(=O)O [S7R] | 7.03 | 6.82 |  | 6.48 |  | 
CC(C)C[C@H](NC(=O)[C@H](CC(=O)O)NC(=O)[C@H](Cc1ccc(O)cc1)NC(=O)[C@H](CCCNC(=N)N)NC(=O)[C@@H]1CSSC[C@@H]2NC(=O)[C@H](CCCCN)NC(=O)[C@H](CC(N)=O)NC(=O)[C@H](CC(N)=O)NC(=O)[C@H](CC(N)=O)NC(=O)[C@@H]3CCCN3C(=O)[C@H](CC(=O)O)NC(=O)[C@@H]3CSSC[C@H](NC(=O)[C@H](C(C)C)NC(=O)[C@H](Cc4ccc(O)cc4)NC(=O)CNC(=O)[C@H](CCC(=O)O)NC(=O)[C@H](CSSC[C@H](NC(=O)[C@H](CC(=O)O)NC(=O)CN)C(=O)N[C@@H](CC(C)C)C(=O)NCC(=O)N[C@@H](Cc4c[nH]c5ccccc45)C(=O)N[C@@H](Cc4ccccc4)C(=O)N[C@@H](CCCCN)C(=O)NCC(=O)N3)NC2=O)C(=O)N[C@@H](Cc2c[nH]cn2)C(=O)N[C@@H](Cc2c[nH]c3ccccc23)C(=O)N[C@@H](CCCCN)C(=O)N[C@@H](Cc2ccc(O)cc2)C(=O)N2CCC[C@H]2C(=O)N[C@@H](Cc2ccccc2)C(=O)N1)C(=O)O [S7K/W28F] (H-GDCLGWFKGCDPNNNKCCEGYVCHWKYPFCRYDL-OH; disulfide 3-18, 10-23, 17-30) | 5.83 | < 5.52 |  | < 5.52 |  | 
CC(C)C[C@H](NC(=O)[C@H](CC(=O)O)NC(=O)[C@H](Cc1ccc(O)cc1)NC(=O)[C@H](CCCNC(=N)N)NC(=O)[C@@H]1CSSC[C@@H]2NC(=O)[C@H](CCCCN)NC(=O)[C@H](CC(N)=O)NC(=O)[C@H](CC(N)=O)NC(=O)[C@H](CC(N)=O)NC(=O)[C@@H]3CCCN3C(=O)[C@H](CC(=O)O)NC(=O)[C@@H]3CSSC[C@H](NC(=O)[C@H](C(C)C)NC(=O)[C@H](Cc4ccc(O)cc4)NC(=O)CNC(=O)[C@H](CCC(=O)O)NC(=O)[C@H](CSSC[C@H](NC(=O)[C@H](CC(=O)O)NC(=O)CN)C(=O)N[C@@H](CC(C)C)C(=O)NCC(=O)N[C@@H](Cc4c[nH]c5ccccc45)C(=O)N[C@@H](Cc4ccccc4)C(=O)N[C@@H](CO)C(=O)N[C@@H](CCCNC(=N)N)C(=O)N3)NC2=O)C(=O)N[C@@H](Cc2c[nH]cn2)C(=O)N[C@@H](Cc2c[nH]c3ccccc23)C(=O)N[C@@H](CCCCN)C(=O)N[C@@H](Cc2ccc(O)cc2)C(=O)N2CCC[C@H]2C(=O)N[C@@H](Cc2c[nH]c3ccccc23)C(=O)N1)C(=O)O [G8R] | 7.02 | 6.93 |  | 6.38 |  | 
CC(C)C[C@H](NC(=O)[C@H](CC(=O)O)NC(=O)[C@H](Cc1ccc(O)cc1)NC(=O)[C@H](C)NC(=O)[C@@H]1CSSC[C@@H]2NC(=O)[C@H](CCCCN)NC(=O)[C@H](CC(N)=O)NC(=O)[C@H](CC(N)=O)NC(=O)[C@H](CC(N)=O)NC(=O)[C@@H]3CCCN3C(=O)[C@H](CC(=O)O)NC(=O)[C@@H]3CSSC[C@H](NC(=O)[C@H](C(C)C)NC(=O)[C@H](Cc4ccc(O)cc4)NC(=O)CNC(=O)[C@H](CCC(=O)O)NC(=O)[C@H](CSSC[C@H](NC(=O)[C@H](CC(=O)O)NC(=O)CN)C(=O)N[C@@H](CC(C)C)C(=O)NCC(=O)N[C@@H](Cc4c[nH]c5ccccc45)C(=O)N[C@@H](Cc4ccccc4)C(=O)N[C@@H](CO)C(=O)NCC(=O)N3)NC2=O)C(=O)N[C@@H](Cc2c[nH]cn2)C(=O)N[C@@H](Cc2c[nH]c3ccccc23)C(=O)N[C@@H](CCCCN)C(=O)N[C@@H](Cc2ccc(O)cc2)C(=O)N2CCC[C@H]2C(=O)N[C@@H](Cc2c[nH]c3ccccc23)C(=O)N1)C(=O)O [R30A] (H-GDCLGWFSGCDPNNNKCCEGYVCHWKYPWCAYDL-OH; disulfide 3-18, 10-23, 17-30 (inferred); N-terminus and C-terminus assumed) | < 6.00 | < 6.00 |  | < 6.00 | ≥ 10 | ≥ 10
CC(C)C[C@H](NC(=O)[C@H](CC(=O)O)NC(=O)[C@H](Cc1ccc(O)cc1)NC(=O)[C@H](CCCNC(=N)N)NC(=O)[C@@H]1CSSC[C@@H]2NC(=O)[C@H](CCCCN)NC(=O)[C@H](CC(N)=O)NC(=O)[C@H](CC(N)=O)NC(=O)[C@H](CC(N)=O)NC(=O)[C@@H]3CCCN3C(=O)[C@H](CC(=O)O)NC(=O)[C@@H]3CSSC[C@H](NC(=O)[C@H](C(C)C)NC(=O)[C@H](Cc4ccc(O)cc4)NC(=O)CNC(=O)[C@H](CCCCN)NC(=O)[C@H](CSSC[C@H](NC(=O)[C@H](CC(=O)O)NC(=O)CN)C(=O)N[C@@H](CC(C)C)C(=O)NCC(=O)N[C@@H](Cc4c[nH]c5ccccc45)C(=O)N[C@@H](Cc4ccccc4)C(=O)N[C@@H](CCCNC(=N)N)C(=O)NCC(=O)N3)NC2=O)C(=O)N[C@@H](Cc2c[nH]cn2)C(=O)N[C@@H](Cc2c[nH]c3ccccc23)C(=O)N[C@@H](CCCCN)C(=O)N[C@@H](Cc2ccc(O)cc2)C(=O)N2CCC[C@H]2C(=O)N[C@@H](Cc2c[nH]c3ccccc23)C(=O)N1)C(=O)O [E18K/S7R] (H-GDCLGWFRGCDPNNNKCCKGYVCHWKYPWCRYDL-OH; disulfide 3-18, 10-23, 17-30) | 7.40 | 7.40 |  | 7.23 |  | 
CC(C)C[C@H](NC(=O)[C@H](CC(=O)O)NC(=O)[C@H](Cc1ccc(O)cc1)NC(=O)[C@H](CCCNC(=N)N)NC(=O)[C@@H]1CSSC[C@@H]2NC(=O)[C@H](CCCCN)NC(=O)[C@H](CC(N)=O)NC(=O)[C@H](CC(N)=O)NC(=O)[C@H](CC(N)=O)NC(=O)[C@@H]3CCCN3C(=O)[C@H](CC(=O)O)NC(=O)[C@@H]3CSSC[C@H](NC(=O)[C@H](C(C)C)NC(=O)[C@H](Cc4ccc(O)cc4)NC(=O)CNC(=O)[C@H](CCC(=O)O)NC(=O)[C@H](CSSC[C@H](NC(=O)[C@H](CC(=O)O)NC(=O)CN)C(=O)N[C@@H](CC(C)C)C(=O)NCC(=O)N[C@@H](Cc4c[nH]c5ccccc45)C(=O)N[C@@H](Cc4ccccc4)C(=O)N[C@@H](CO)C(=O)NCC(=O)N3)NC2=O)C(=O)N[C@@H](CO)C(=O)N[C@@H](Cc2c[nH]c3ccccc23)C(=O)N[C@@H](CCCCN)C(=O)N[C@@H](Cc2ccc(O)cc2)C(=O)N2CCC[C@H]2C(=O)N[C@@H](Cc2c[nH]c3ccccc23)C(=O)N1)C(=O)O [H23S] | 6.70 | 6.81 |  | 6.17 |  | 
